Consider 20 molecules from ChEMBL document CHEMBL1201862, “PubChem BioAssay data set” (2004).

Structures are written as SMILES. Active and inactive are the calls of the source. Where only a bound is given, the exact number is not on record here.

The target in assay [1] is DNA dC->dU-editing enzyme APOBEC-3G (Homo sapiens, UniProt Q9HC16). In kind it is functional.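 Further: Dose-response counterscreen measuring inhibition of APOBEC3G DNA deaminase activity, run while confirming APOBEC3A inhibitors.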
Sequence of DNA dC->dU-editing enzyme APOBEC-3G (Q9HC16 whole entry): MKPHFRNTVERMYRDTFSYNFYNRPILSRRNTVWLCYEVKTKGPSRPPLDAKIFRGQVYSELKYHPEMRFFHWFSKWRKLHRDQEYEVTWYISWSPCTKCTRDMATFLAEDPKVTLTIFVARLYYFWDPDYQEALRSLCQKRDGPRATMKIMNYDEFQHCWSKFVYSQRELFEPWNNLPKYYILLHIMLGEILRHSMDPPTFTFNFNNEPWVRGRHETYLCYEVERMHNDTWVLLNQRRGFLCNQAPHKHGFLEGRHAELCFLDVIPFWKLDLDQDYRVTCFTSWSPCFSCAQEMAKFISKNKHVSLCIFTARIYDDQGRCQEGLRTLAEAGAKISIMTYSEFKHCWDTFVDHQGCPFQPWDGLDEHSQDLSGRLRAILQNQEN
In assay [2] the target is DNA dC->dU-editing enzyme APOBEC-3A (Homo sapiens, UniProt P31941). Put plainly: Dose Response confirmation of small molecule APOBEC3A DNA Deaminase Inhibitors via a fluorescence-based single-stranded DNA deaminase assay. [Related pubchem assays (depositor defined):AID493011, AID493024]. The assay is classed as functional.
Sequence of DNA dC->dU-editing enzyme APOBEC-3A (P31941 whole entry): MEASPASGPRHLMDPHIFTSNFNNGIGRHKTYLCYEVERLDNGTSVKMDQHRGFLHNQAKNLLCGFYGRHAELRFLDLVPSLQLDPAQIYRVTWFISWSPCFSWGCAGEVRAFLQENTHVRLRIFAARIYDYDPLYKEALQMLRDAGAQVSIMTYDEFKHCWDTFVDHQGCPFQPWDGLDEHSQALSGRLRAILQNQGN
The next assay addresses Cytochrome P450 3A4 (Homo sapiens, UniProt P08684). Particulars: Potency.
The test system of assay [3] is HEK293. Put plainly: cells. Particulars: Homo sapiens.
The test system of assay [4] is HEK293. The assay is described as follows: NOD2 signaling inhibitors in MDP-stimulated cells, cell-based, uHTS, luminescence (AID 2001). The assay is classed as functional. Particulars: Homo sapiens.
Another assay deals with Tumor necrosis factor (Homo sapiens, UniProt P01375). Put plainly: TNFa-triggered NF-kB activation inhibitors, SAR follow-up, cell-based, revised (AID 2337). In kind it is functional.
Sequence of Tumor necrosis factor (P01375 whole entry, the tested form may be a part): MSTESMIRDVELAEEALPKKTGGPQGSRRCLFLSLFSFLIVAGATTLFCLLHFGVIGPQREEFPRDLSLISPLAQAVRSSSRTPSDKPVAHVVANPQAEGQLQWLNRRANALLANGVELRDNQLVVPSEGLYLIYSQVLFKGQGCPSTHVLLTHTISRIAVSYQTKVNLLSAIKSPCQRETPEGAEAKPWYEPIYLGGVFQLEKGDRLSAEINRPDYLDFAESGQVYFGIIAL
In assay [5] the target is T1, Nucleotide-binding oligomerization domain-containing protein 1 (Homo sapiens, UniProt Q9Y239).
T1 sequence (Q9Y239 whole entry): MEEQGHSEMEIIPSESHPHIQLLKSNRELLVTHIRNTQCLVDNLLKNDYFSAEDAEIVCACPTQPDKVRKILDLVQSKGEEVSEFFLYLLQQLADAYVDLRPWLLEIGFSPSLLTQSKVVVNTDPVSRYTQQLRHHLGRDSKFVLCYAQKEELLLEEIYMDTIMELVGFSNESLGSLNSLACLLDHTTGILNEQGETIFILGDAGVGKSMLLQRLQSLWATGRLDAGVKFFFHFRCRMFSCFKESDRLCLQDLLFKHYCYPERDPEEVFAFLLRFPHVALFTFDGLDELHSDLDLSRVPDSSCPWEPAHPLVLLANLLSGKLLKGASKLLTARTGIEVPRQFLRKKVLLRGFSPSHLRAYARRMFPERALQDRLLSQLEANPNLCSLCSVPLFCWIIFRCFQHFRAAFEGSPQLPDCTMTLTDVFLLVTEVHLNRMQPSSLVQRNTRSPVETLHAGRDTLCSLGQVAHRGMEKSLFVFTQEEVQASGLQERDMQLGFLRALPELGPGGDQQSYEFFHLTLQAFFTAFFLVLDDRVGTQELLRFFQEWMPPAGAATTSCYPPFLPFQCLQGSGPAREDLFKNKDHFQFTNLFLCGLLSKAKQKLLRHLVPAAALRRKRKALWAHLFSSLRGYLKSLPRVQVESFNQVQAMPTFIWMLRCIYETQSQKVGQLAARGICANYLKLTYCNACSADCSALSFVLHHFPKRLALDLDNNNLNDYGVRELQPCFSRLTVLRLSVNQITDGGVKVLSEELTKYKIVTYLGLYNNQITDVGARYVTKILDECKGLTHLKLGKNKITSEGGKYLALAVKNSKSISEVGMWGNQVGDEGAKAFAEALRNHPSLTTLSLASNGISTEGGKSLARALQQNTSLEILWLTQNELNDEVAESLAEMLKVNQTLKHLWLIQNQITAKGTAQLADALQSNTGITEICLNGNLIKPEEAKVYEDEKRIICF
Put plainly: NOD1 signaling inhibitors, SAR follow-up, revised (AID 2333). The assay is classed as functional.

For assay [6], the system named is HEK293. Put plainly: NOD1 signaling inhibitors, primary screen, cell-based, luminescence, uHTS (AID 1578). The assay is classed as functional. Particulars: Homo sapiens.
Assay [7] relates to HEK293. Put plainly: cells. In kind it is functional, cell-based. Particulars: Homo sapiens.
In assay [8] the test system is HEK293. Put plainly: cells. The assay is classed as functional, cell-based. Particulars: Homo sapiens. This is another data set of the same source.
In assay [9] the target is Peroxisome proliferator-activated receptor gamma/Nuclear receptor coactivator 1 (Homo sapiens, UniProt P37231). In kind it is functional.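 Further: agonist potency as compounds enhance coactivator SRC-1 recruitment to PPARgamma.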
The target in assay [10] is Peroxisome proliferator-activated receptor gamma/Nuclear receptor coactivator 2 (Homo sapiens, UniProt P37231). In kind it is functional.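 Further: agonist potency for raising coactivator recruitment to the receptor.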
Sequence of Peroxisome proliferator-activated receptor gamma/Nuclear receptor coactivator 2 (P37231 whole entry): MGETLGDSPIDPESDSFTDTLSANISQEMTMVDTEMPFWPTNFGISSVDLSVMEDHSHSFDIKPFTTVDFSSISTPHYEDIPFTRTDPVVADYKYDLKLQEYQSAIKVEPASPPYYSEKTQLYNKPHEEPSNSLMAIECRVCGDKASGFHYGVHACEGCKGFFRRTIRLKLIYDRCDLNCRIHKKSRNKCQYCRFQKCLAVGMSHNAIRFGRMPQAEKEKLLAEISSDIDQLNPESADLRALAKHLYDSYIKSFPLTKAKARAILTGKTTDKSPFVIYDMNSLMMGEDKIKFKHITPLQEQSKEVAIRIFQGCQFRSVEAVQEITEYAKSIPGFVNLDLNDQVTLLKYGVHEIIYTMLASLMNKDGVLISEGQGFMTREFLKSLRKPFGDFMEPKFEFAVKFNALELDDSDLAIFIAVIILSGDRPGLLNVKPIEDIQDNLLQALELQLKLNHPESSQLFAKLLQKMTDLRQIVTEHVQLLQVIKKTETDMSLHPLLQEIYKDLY
Sequence of Peroxisome proliferator-activated receptor gamma/Nuclear receptor coactivator 2 (Q15596 whole entry, further chain): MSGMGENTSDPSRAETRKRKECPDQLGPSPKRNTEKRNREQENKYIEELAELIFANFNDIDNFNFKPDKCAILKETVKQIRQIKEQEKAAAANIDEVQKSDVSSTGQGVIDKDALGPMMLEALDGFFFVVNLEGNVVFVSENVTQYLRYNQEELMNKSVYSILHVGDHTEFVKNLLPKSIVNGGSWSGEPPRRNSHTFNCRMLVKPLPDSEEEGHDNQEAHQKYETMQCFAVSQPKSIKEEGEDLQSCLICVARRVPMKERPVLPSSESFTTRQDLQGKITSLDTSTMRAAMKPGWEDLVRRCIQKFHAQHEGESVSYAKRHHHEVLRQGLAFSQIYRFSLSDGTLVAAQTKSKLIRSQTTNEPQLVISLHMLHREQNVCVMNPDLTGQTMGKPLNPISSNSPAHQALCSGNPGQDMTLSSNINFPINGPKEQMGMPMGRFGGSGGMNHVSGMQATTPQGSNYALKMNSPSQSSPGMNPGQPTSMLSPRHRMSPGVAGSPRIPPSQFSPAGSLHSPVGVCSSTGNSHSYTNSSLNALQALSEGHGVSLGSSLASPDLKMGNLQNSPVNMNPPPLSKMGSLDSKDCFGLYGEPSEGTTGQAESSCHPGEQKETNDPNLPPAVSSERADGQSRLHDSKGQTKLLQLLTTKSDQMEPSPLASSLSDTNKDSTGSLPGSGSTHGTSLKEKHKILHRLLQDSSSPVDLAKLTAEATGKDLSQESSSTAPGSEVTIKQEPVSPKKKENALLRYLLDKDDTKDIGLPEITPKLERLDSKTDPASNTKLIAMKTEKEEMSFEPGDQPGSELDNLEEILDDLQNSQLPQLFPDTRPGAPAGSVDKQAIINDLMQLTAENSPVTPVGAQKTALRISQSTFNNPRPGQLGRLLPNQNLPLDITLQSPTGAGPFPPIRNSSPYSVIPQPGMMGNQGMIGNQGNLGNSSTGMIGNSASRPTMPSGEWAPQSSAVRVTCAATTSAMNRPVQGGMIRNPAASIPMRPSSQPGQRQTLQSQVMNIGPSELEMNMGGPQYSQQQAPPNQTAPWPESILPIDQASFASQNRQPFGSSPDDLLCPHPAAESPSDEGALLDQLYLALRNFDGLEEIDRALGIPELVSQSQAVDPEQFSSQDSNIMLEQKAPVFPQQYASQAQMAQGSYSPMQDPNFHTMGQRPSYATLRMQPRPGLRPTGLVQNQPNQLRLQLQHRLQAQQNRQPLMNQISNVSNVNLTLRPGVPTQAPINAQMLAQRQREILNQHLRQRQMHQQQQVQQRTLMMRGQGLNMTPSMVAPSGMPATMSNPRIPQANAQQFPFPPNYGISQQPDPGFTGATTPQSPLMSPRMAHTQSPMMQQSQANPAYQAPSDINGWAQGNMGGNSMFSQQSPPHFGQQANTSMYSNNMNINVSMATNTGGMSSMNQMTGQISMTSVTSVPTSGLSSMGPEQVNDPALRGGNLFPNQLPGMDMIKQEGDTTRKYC
Assay [11] deals with Peroxisome proliferator-activated receptor gamma/Nuclear receptor coactivator 3 (Homo sapiens, UniProt P37231). The assay is classed as functional.
For the next assay, the target named is Ion channel NompC (Danio rerio, UniProt Q7T1G6). Put plainly: Fluorescence counterscreen assay for TRPML3 agonists: dose response cell-based high-throughput screening assay to identify agonists of the transient receptor potential channel N1 (TRPN1). [Related pubchem assays: 1526, 1424, 1448 ]. In kind it is functional.
Sequence of Ion channel NompC (Q7T1G6 whole entry): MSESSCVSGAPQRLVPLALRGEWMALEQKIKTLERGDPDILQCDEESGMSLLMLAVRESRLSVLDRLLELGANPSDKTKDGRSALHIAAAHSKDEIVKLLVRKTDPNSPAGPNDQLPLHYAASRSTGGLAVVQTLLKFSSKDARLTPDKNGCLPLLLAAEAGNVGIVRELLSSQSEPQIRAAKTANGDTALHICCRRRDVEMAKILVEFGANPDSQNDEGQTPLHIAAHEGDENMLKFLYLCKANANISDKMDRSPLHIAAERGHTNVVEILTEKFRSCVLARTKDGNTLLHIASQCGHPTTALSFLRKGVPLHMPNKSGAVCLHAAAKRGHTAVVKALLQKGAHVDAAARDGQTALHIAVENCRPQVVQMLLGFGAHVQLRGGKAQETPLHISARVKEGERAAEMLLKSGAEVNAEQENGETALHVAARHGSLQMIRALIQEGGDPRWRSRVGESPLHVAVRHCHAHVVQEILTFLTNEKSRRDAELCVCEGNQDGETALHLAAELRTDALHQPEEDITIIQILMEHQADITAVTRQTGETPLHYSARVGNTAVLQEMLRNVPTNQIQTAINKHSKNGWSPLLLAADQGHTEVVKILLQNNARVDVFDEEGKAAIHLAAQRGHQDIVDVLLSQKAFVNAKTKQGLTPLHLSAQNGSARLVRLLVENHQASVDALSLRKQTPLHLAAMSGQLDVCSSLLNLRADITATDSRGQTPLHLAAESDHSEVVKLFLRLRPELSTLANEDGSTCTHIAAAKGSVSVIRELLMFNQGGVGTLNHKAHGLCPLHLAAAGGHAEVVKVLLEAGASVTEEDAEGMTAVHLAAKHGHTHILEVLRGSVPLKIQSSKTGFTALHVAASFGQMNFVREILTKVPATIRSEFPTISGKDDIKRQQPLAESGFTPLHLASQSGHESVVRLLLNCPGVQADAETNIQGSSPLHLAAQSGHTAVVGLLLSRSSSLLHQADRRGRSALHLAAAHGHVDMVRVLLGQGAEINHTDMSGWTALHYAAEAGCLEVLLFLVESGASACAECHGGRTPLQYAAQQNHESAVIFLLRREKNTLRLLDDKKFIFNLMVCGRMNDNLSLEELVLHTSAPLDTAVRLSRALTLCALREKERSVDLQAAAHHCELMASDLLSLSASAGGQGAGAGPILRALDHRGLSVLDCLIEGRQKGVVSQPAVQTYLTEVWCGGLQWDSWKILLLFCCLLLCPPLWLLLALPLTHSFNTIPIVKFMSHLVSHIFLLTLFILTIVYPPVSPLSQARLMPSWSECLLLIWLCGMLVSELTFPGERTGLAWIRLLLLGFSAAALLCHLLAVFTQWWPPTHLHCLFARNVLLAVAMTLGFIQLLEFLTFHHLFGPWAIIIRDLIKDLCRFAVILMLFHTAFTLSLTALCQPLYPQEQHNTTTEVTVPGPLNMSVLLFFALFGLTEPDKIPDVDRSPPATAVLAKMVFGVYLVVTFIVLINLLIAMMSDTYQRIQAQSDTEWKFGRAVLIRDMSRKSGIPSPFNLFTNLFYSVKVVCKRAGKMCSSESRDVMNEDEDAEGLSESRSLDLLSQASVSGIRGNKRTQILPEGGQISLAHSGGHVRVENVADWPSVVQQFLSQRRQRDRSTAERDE
In another assay the target is T2, Mucolipin-3 (Homo sapiens, UniProt Q8TDD5).
T2 sequence (Q8TDD5 whole entry): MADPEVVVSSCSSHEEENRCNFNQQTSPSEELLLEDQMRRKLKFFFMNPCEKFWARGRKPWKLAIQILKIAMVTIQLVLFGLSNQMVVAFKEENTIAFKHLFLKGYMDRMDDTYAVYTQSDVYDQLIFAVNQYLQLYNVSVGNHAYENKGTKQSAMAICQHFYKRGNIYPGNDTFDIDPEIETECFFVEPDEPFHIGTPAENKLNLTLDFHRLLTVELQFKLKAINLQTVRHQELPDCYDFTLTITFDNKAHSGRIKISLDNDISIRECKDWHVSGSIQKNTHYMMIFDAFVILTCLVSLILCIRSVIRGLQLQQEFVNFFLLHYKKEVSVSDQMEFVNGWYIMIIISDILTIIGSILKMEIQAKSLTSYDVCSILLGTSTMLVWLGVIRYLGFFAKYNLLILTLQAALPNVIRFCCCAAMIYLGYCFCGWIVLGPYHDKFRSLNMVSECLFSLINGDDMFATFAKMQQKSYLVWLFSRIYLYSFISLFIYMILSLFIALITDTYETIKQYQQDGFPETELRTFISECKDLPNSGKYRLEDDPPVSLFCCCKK
The assay is described as follows: Dose response cell-based high-throughput screening assay for agonists of the transient receptor potential channel ML3 (TRPML3). [Related pubchem assays: 1526, 1424, 1448 ]. In kind it is functional.

Assay [12] in a line: cytotoxicity in KRAS-transformed pancreatic duct cells, primary screen, cell-based, fluorescence, HTS (AID 431). The assay is classed as functional. Particulars: Homo sapiens.
Assay [13] in a line: cytotoxicity in HPDE-C7 cells, cell-based, fluorescence, HTS (AID 430). Particulars: Homo sapiens. In kind it is functional.
Assay [14] in a line: control 3'UTR Renilla luciferase suppression, dose response, counter-screen for Shn3 inhibitor project, cell-based, Clone20-Shn3RL, cherry-picked (AID 624133). In kind it is functional. A general note: The purpose of a counterscreen is to sort out artefacts and off-target activity.
Assay [15] in a line: HepG2 cell cytotoxicity, dose response, cytotoxicity control for Shn3 inhibitor project, CellTiter-Glo, cherry-picked (AID 624134). The assay is classed as functional, cell-based. A general note: In ATP-based viability assays light output follows the ATP content of the culture.
Assay [16] is described as follows: Shn3 3'UTR reporter inhibitors, dose response, cell-based, Clone20 osteoblasts, firefly luciferase, cherry-picked (AID 624132).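 Further: firefly luciferase luminescence from reporter carrying the Shn3 3'UTR in osteoblasts.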 The assay is classed as functional.
Assay [17] in a line: Luminescence Cell-Based Dose Response HTS to Identify Inhibitors of 5'UTR Stem-Loop Driven Prion Protein mRNA Translation in H4 Neuroglioblastoma Cells. [Related pubchem assays: 1827 (Project Summary), 1813 (Primary HTS)]. The assay is classed as functional.
A short description of assay [18]: C. albicans growth with fluconazole, confirmation, fluorescence, retest (AID 2467). In kind it is functional, cell-based.
Assay [19] in a line: NIH-3T3 fibroblast cytotoxicity, dose response, cytotoxicity control, cell-based, fluorescence, Alamar Blue, secondary assay (AID 2327).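 Further: NIH-3T3 mouse fibroblasts cultured with fluconazole at 8 µg/mL.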 The assay is classed as functional.
Assay [20] can be described thus: inhibitors of firefly luciferase expression or activity, dose response, H4 neuroglioma cells, luminescence (AID 1990). In kind it is functional, cell-based.
The nature of assay [21]: inhibitors of SNCA 5'UTR-driven reporter translation, confirmation, H4 neuroglioma cells, luminescence (AID 1988). The assay is classed as functional, cell-based.

Sequence of Cytochrome P450 3A4 (P08684 whole entry): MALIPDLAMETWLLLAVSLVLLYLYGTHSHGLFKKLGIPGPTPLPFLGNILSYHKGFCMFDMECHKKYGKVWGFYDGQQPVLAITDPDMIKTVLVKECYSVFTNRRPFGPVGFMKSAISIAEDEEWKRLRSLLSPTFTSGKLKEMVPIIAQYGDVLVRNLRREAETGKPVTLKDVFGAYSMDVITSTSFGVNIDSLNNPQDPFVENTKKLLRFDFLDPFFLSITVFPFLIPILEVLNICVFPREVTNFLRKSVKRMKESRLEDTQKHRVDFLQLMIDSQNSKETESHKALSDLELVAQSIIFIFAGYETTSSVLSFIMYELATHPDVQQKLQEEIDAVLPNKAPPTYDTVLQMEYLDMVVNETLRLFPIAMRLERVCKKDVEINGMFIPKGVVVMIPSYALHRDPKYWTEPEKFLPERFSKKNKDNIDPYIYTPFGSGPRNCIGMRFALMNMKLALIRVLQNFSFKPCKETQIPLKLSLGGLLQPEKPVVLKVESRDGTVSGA

By IC50 is commonly meant the point on the concentration scale where inhibition reaches its midpoint. `CCN1C(N(C)CCc2cccs2)=N[C@@H](c2ccccc2)C(C(=O)OC)=C1C`: the half-maximal inhibitory concentration (IC50) in [1] is 8.2 µM (active); in assay [2] it was 6.31 µM (active).

For orientation: AC50 means the midpoint of the concentration-response curve, whichever way the signal moves. On to `CCN1C[C@@]2(C)CC[C@@H](OC)[C@@]34C2C(O)[C@@]2(OCO[C@]25CC(OC)C2C[C@@]3(O)C5C2O)C14` (stereo partly drawn), for which the AC50 at Cytochrome P450 3A4 is 39.8 µM (inconclusive).

The EC50 is the concentration giving half of the maximal effect. As for `Cc1nc(CN(C)C(=O)c2cc(COc3ccc4ncccc4c3)on2)cs1`, the IC50 is > 20 µM (inactive) in the assay with HEK293 [3]; 14.3 µM (inactive) in the assay on HEK293 [4]; > 20 µM (inactive) on Tumor necrosis factor; > 20 µM (inactive) in assay [5]; 7.67 µM (active) in the assay on HEK293 [7]; > 20 µM (inactive) in the assay with HEK293 [8]. The concentration for a half-maximal effect (EC50) with HEK293 [6] was 2.75 µM (active).

Regarding `CSCCNC(C)=O`, the EC50 in assay [9], in assay [10] and in assay [11] was > 79.4 µM (not active) throughout.

As to `O=S(=O)(Cc1cc(Cl)nc(-c2ccccc2)n1)c1ccccc1`, the results for the EC50 at Ion channel NompC and on Mucolipin-3 were > 29.9 µM (not active) and 5.36 µM (active), respectively.

Turning to `CCCS(=O)(=O)N1CCC(C(=O)NCCc2ccccc2)CC1`, the EC50 in [12] and in [13] was > 20 µM (not active) each time.

Regarding `CN(Cc1ccc(F)cc1)S(=O)(=O)c1nnc(NC(=O)c2ccccc2)s1`, the IC50 in the assay with HEK293 [3] is > 20 µM (inactive); in the assay on HEK293 [4] it was 16.7 µM (inactive); at Tumor necrosis factor, 15.1 µM (active); in assay [5], 11.1 µM (active); with HEK293 [7], > 20 µM (inactive); in the assay on HEK293 [8], > 20 µM (inactive). Besides, the EC50 in the assay on HEK293 [6] is 3.08 µM (active).

Regarding `CCC(=O)[C@]12O[C@@]3(C4C(=O)OCCC41)N(CC)C(C)=C(C(=O)OC)C(c1ccccc1)N3C2=O` (stereo partly drawn), the concentration at half-maximal activity (AC50) on Cytochrome P450 3A4 was 5.01 µM (inconclusive).

For the molecule `CCOC(=O)C1=C(NC(=S)NC(=O)c2ccccc2)c2ccccc2CC1(C)C`, the EC50 at Ion channel NompC was > 29.9 µM (not active); on Mucolipin-3 it was 5.5 µM (active).

Consider `Cc1c(NC(=O)c2nc[nH]n2)cccc1-c1nc2ccccc2s1`, for which the figures for the IC50 in assay [1] and in assay [2] were 2.54 µM (active) and 1.58 µM (active), respectively.

Consider `CCCCC(CC)Cn1c2nc3ccccc3nc2c2c(=N)oc(C)nc21` (stereo not drawn), for which the 50% effective concentration (EC50) in assay [9] is reported as > 79.4 µM (not active); in [10], > 79.4 µM (not active); in [11], 84.3 µM (not active).

With `COC(C)C(O)(C(=O)OC1=CCN2CC[C@H](O)[C@H]12)C(C)C` (stereo partly drawn), the AC50 at Cytochrome P450 3A4 is 50.1 µM (inconclusive).

As for `COc1ccc(CNc2ncnc3sccc23)cc1OC`, the IC50 was > 20 µM (inactive) with HEK293 [3]; > 20 µM (inactive) in the assay with HEK293 [4]; 13 µM (active) at Tumor necrosis factor; 9.64 µM (active) in assay [5]; 17.4 µM (active) with HEK293 [7]; > 20 µM (inactive) in the assay with HEK293 [8]. Moreover, the AC50 in [14] is 5.11 µM (active); in assay [15], 68.3 µM (active); in [16], 2.34 µM (active). Further, in the assay with HEK293 [6], the concentration giving a half-maximal response (EC50) was 5.37 µM (active).

Take `Cc1ccc(S(=O)(=O)N2CCN(C)CC2)c(C)c1N(C)S(=O)(=O)c1ccc(Cl)cc1`: the 50% effective concentration (EC50) at Ion channel NompC was > 29.9 µM (not active); at Mucolipin-3, 3.34 µM (active).

`COc1ccc(N(Cc2cc3cc(OC)ccc3nc2O)S(C)(=O)=O)cc1`: the EC50 in [12] and in assay [13] was > 20 µM (not active) in each case.

As to `CCOc1ccc2c(c1)C(C)=CC(C)(C)N2S(=O)(=O)c1ccc(C)cc1`, the half-maximal effective concentration (EC50) in assay [17] is 147 nM (active); in [18], > 38 µM (not active); on Ion channel NompC, > 29.9 µM (not active); in [19], > 160 µM (inactive); in [20], 1.36 µM (active); in [21] it was 497 nM (active). Besides, on Mucolipin-3, the 50% effective concentration (EC50) is > 29.9 µM (not active).

With `CCc1n(CC(O)COCC2CC=CCC2)c2ccccc2[n+]1C` (stereo not drawn), the IC50 in [1] is 3.7 µM (active); in [2], 1.93 µM (active).

Turning to `CC1CN(c2oc(COc3ccc(Cl)cc3Cl)nc2C#N)CC(C)O1` (stereo not drawn), the EC50 in [12] and in [13] was > 20 µM (not active) each time.

Turning to `CN1CCN(CC(=O)Nc2sc3c(c2C(=O)Nc2ccccc2)CCCC3)CC1`, the half-maximal inhibitory concentration (IC50) in assay [1] is 5.56 µM (active); in assay [2] it was 6.88 µM (active).

In the case of `O=c1[nH]n(-c2ccccc2)c(=O)c2ccccc12`, the 50% effective concentration (EC50) in assay [9], in [10] and in [11] was > 79.4 µM (not active) throughout.
